Like-named read-outs stand apart in the source and are kept apart here.
Target: T1, Nanoluciferase-BRD9 fusion protein (3×FLAG-NLuc-BRD9) in SYO-1 cells (Homo sapiens, UniProt Q9H8M2)
T1 construct: expressed in transfected cells; host or cells: SYO-1
T1 sequence (Q9H8M2 1-597): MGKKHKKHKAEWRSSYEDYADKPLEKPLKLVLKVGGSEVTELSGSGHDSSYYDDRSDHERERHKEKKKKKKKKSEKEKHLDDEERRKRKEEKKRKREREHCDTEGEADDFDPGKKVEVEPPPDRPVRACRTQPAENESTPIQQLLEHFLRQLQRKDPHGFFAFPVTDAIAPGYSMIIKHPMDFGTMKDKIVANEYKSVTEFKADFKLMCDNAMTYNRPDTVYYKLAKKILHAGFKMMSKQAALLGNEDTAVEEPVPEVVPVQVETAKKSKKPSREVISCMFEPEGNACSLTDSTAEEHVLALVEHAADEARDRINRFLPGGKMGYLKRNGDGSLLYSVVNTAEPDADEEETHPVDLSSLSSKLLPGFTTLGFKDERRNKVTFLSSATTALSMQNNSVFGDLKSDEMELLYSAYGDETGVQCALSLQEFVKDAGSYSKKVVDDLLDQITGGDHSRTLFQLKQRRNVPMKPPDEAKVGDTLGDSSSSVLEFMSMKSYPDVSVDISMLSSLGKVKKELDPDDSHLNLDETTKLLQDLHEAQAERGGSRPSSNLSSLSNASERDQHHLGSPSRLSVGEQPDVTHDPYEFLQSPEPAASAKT
Test: SYO1 BRD9 NanoLuc degradation assay
Assay type: cell-based
Details: SYO-1 cells expressing 3×FLAG-NLuc-BRD9, 6 hours incubation, 1 μM top dose, read-out: SYO1 BRD9-NanoLuc degradation IC50
Description: Procedure: A stable SYO-1 cell line expressing 3×FLAG-NLuc-BRD9 was generated. On day 0 cells were seeded in 30 μL media into each well of 384-well cell culture plates. The seeding density was 8000 cells/well. On day 1, cells were treated with 30 nL DMSO or 30 nL of 3-fold serially DMSO-diluted compounds (10 points in duplicates with 1 μM as final top dose). Subsequently plates were incubated for 6 hours in a standard tissue culture incubator and equilibrated at room temperature for 15 minutes. Nanoluciferase activity was measured by adding 15 μL of freshly prepared Nano-Glo Luciferase Assay Reagent (Promega N1130), shaking the plates for 10 minutes and reading the bioluminescence using an EnVision reader. • Results: The Inhibition % was calculated using the following formula: % Inhibition=100×(LumHC−LumSample)/(LumHC−LumLC). DMSO treated cells are employed as High Control (HC) and 1 μM of a known BRD9 degrader standard treated cells are employed as Low Control (LC).

SMILES | DC50 (Table 6C) | DC50 (Table 6B)
COc1cc(-c2cn(C)c(=O)c3sncc23)cc(OC)c1CN1CCC2(CC1)CN(c1ccc3c(c1)C(=O)N(C1CCC(=O)NC1=O)C3)C2 (stereo not shown) [Compound D203] | < 0.01 µM | –
COc1cc(-c2cn(C)c(=O)c3cc(N4CCC4)sc23)cc(OC)c1CN1CCC(CCN2CCN(c3ccc4c(c3)C(=O)N(C3CCC(=O)NC3=O)C4)CC2)CC1 (stereo not shown) [Compound D94] | < 0.01 µM | –
COc1cc(-c2cn(C)c(=O)c3ccsc23)cc(OC)c1CN1CCC2(CC1)CN(c1ccc3c(c1)C(=O)N(C1CCC(=O)NC1=O)C3=O)C2 (stereo not shown) [Compound D183] | < 0.01 µM | –
COc1cc(-c2cn(C)c(=O)c3cc(C(=O)NC4CCN(CCCN5CCN(c6ccc7c(c6)C(=O)N(C6CCC(=O)NC6=O)C7=O)CC5)CC4(F)F)sc23)cc(OC)c1CN(C)C (stereo not shown) [Compound D60] | – | < 0.01 µM
COc1cc(-c2cn(C)c(=O)c3cc(C(=O)N[C@H]4CCN(C5CCN(c6ccc7c(c6)C(=O)N(C6CCC(=O)NC6=O)C7)CC5)CC4(F)F)sc23)cc(OC)c1CN(C)C (stereo partly shown) [Compound D167] | < 0.01 µM | –
COc1cc(-c2cn(C)c(=O)c3cc(C(=O)NCC4CC5(CCN(CCCN6CCN(c7ccc8c(c7)C(=O)N(C7CCC(=O)NC7=O)C8=O)CC6)CC5)CO4)sc23)cc(OC)c1CN(C)C (stereo not shown) [Compound D49] | – | < 0.01 µM
COc1cc(-c2cn(C)c(=O)c3ccsc23)cc(OC)c1CN1CCC2CN(c3ccc4c(c3)C(=O)N(C3CCC(=O)NC3=O)C4)CCC2C1 (stereo not shown) [Compound D106] | < 0.01 µM | –
COc1cc(-c2cn(C)c(=O)c3cc(NC(=O)C4CCN(CCCCCOc5cccc6c5C(=O)N(C5CCC(=O)NC5=O)C6=O)CC4(F)F)sc23)cc(OC)c1CN(C)C (stereo not shown) [Compound D59] | – | > 0.01 µM
COc1cc(-c2cn(C)c(=O)c3cscc23)cc(OC)c1CN1CCC2(CC1)CN(c1ccc3c(c1)C(=O)N(C1CCC(=O)NC1=O)C3=O)C2 (stereo not shown) [Compound D208] | < 0.01 µM | –
COc1cc(-c2cn(C)c(=O)c3ncsc23)cc(OC)c1CN1CCC2(CC1)CN(c1ccc3c(c1)C(=O)N(C1CCC(=O)NC1=O)C3)C2 (stereo not shown) [Compound D204] | > 0.1 µM | –
COc1cc(-c2cn(C)c(=O)c3cc(C(=O)NCC4CC5(CCN(C(=O)CCN6CCN(c7ccc8c(c7)C(=O)N(C7CCC(=O)NC7=O)C8=O)CC6)CC5)C4)sc23)cc(OC)c1CN(C)C (stereo not shown) [Compound D35] | – | < 0.01 µM
COc1cc(-c2cn(C)c(=O)c3cc(C(=O)NCC4CC5(C4)CN(CCN4CCN(c6ccc7c(c6)C(=O)N(C6CCC(=O)NC6=O)C7=O)CC4)C5)sc23)cc(OC)c1CN(C)C (stereo not shown) [Compound D53] | – | > 0.01 µM
COc1cc(-c2cn(C)c(=O)c3cc(C(=O)NC4CCC45CCN(CCCN4CCN(c6ccc7c(c6)C(=O)N(C6CCC(=O)NC6=O)C7=O)CC4)CC5)sc23)cc(OC)c1CN(C)C (stereo not shown) [Compound D55] | – | > 0.1 µM
COc1cc(-c2cn(C)c(=O)c3ncsc23)cc(OC)c1CN1CC(Oc2ccc3c(c2)CN(C2CCC(=O)NC2=O)C3=O)C1 (stereo not shown) [Compound D206] | < 0.01 µM | –
[2H]C([2H])([2H])n1cc(-c2cc(OC)c(CN3CCN(c4ccc5c(c4)C(=O)N(C4CCC(=O)NC4=O)C5)CC3)c(OC)c2)c2sccc2c1=O (stereo not shown) [Compound D147] | < 0.01 µM | –
COc1cc(-c2cn(C)c(=O)c3cc(C(=O)NC4CCN(C)CC4)sc23)cc(OC)c1CN(C)CC(=O)NCCOCCOc1cccc2c1C(=O)N(C1CCC(=O)NC1=O)C2=O (stereo not shown) [Compound D32] | – | > 0.1 µM
COc1cc(-c2cn(C)c(=O)c3cc(C(=O)N[C@H]4CCN(c5ccc6c(c5)C(=O)N(C5CCC(=O)NC5=O)C6)CC4(F)F)sc23)cc(OC)c1CN(C)C (stereo partly shown) [Compound D152] | < 0.01 µM | –
COc1cc(-c2cn(C)c(=O)c3cc(C(=O)NC4CCN(CC(F)(F)CCCOc5ccc6c(c5)C(=O)N(C5CCC(=O)NC5=O)C6=O)CC4)sc23)cc(OC)c1CN(C)C (stereo not shown) [Compound D83] | – | < 0.01 µM
COc1cc(OC)cc(-c2cn(C)c(=O)c3cc(C(=O)NC4CCN(c5ccc6c(c5)C(=O)N(C5CCC(=O)NC5=O)C6)CC4(F)F)sc23)c1 (stereo not shown) [Compound D131] | < 0.01 µM | –

SMILES | DC50 (Table 6C) | DC50 (Table 6B)
COc1cc(-c2cn(C)c(=O)c3cnsc23)cc(OC)c1CN1CCC2(CC1)CN(c1ccc3c(c1)C(=O)N(C1CCC(=O)NC1=O)C3=O)C2 (stereo not shown) [Compound D209] | < 0.01 µM | –
COc1cc(-c2cn(C)c(=O)c3ccsc23)cc(OC)c1CN1CCC(CN2CCC3(CC2)CC(Oc2ccc4c(c2)C(=O)N(C2CCC(=O)NC2=O)C4=O)C3)CC1 (stereo not shown) [Compound D189] | < 0.01 µM | –
COc1cc(-c2cn(C)c(=O)c3ccsc23)cc(OC)c1CN1CCC(CN2CCC3(CC2)CC(Oc2ccc4c(c2)CN(C2CCC(=O)NC2=O)C4=O)C3)CC1 (stereo not shown) [Compound D220] | < 0.01 µM | –
COc1cc(-c2cn(C)c(=O)c3ccsc23)cc(OC)c1CN1CC(Oc2ccc3c(c2)C(=O)N(C2CCC(=O)NC2=O)C3)C1 (stereo not shown) [Compound D168] | < 0.01 µM | –
COc1cc(-c2cn(C)c(=O)c3cc(C(=O)NC4CCN(C)CC4(F)F)sc23)cc(OC)c1CN(C)CC(=O)NCCOCCOc1cccc2c1C(=O)N(C1CCC(=O)NC1=O)C2=O (stereo not shown) [Compound D30] | – | > 0.01 µM
COc1cc(-c2cn(C)c(=O)c3cc(C(=O)NC4CCN(c5cccc(OC6CCC(=O)NC6=O)c5)CC4)sc23)cc(OC)c1CN(C)C (stereo not shown) [Compound D108] | < 0.01 µM | –
COc1cc(-c2cn(C)c(=O)c3cc(C(=O)NCC4CCN(CCCCOc5cccc6c5C(=O)N(C5CCC(=O)NC5=O)C6=O)CC4)sc23)cc(OC)c1CN(C)C (stereo not shown) [Compound D81] | – | > 0.1 µM
Cn1cc(-c2ccc(-c3ccc4c(c3)C(=O)N(C3CCC(=O)NC3=O)C4)c(C(F)(F)F)c2)c2sccc2c1=O (stereo not shown) [Compound D125] | < 0.01 µM | –
COc1cc(-c2cn(C)c(=O)c3ccsc23)cc(OC)c1CN1CCC2(CC1)CN(c1ccc3c(c1)CN(C1CCC(=O)NC1=O)C3=O)C2 (stereo not shown) [Compound D178] | < 0.01 µM | –
COc1cc(-c2c(C)n(C)c(=O)c3cc(C(=O)NC4CCN(CCN5CCN(c6ccc7c(c6)C(=O)N(C6CCC(=O)NC6=O)C7)CC5)CC4(F)F)sc23)cc(OC)c1CN(C)C (stereo not shown) [Compound D171] | > 0.01 µM | –
COc1cc(-c2cn(C)c(=O)c3cc(C(=O)Nc4cccc(OC5CCC(=O)NC5=O)c4)sc23)cc(OC)c1CN(C)C (stereo not shown) [Compound D95] | > 0.1 µM | –
COc1cc(-c2cn(C)c(=O)c3cc(C(=O)NC4CCN(c5ccc6c(c5)C(=O)N(C5CCC(=O)NC5=O)C6)CC4(F)F)sc23)cc(OC)c1CN(C)C (stereo not shown) [Compound D165] | < 0.01 µM | –
COc1cc(-c2cn(C)c(=O)c3cc(C(=O)NC4CCN(C5CCN(c6ccn7c(=O)n(C8CCC(=O)NC8=O)nc7c6)CC5)CC4(F)F)sc23)cc(OC)c1CN(C)C (stereo not shown) [Compound D179] | < 0.01 µM | –
COc1cc(-c2cn(C)c(=O)c3c(C)csc23)cc(OC)c1CN1CCC(CN2CCC3(CC2)CN(c2ccc4c(c2)C(=O)N(C2CCC(=O)NC2=O)C4=O)C3)CC1 (stereo not shown) [Compound D161] | < 0.01 µM | –
COc1cc(-c2cn(C)c(=O)c3cc(C(=O)NC4CC5(CCN(CCCN6CCN(c7ccc8c(c7)C(=O)N(C7CCC(=O)NC7=O)C8=O)CC6)C5)C4)sc23)cc(OC)c1CN(C)C (stereo not shown) [Compound D73] | – | < 0.01 µM
COc1cc(-c2cn(C)c(=O)c3ccsc23)cc(OC)c1CN1CCC2(CC1)CN(c1ccc3c(c1)C(=O)N(C1CCC(=O)NC1=O)C3)C2 (stereo not shown) [Compound D186] | < 0.01 µM | –
Cn1cc(-c2cccc(C(F)(F)F)c2)c2oc(C(=O)NC3CCN(c4ccc5c(c4)C(=O)N(C4CCC(=O)NC4=O)C5)CC3)cc2c1=O (stereo not shown) [Compound D211] | > 0.01 µM | –
COc1cc(-c2cn(C)c(=O)c3ccsc23)cc(OC)c1CN1CCC2CCN(c3ccc4c(c3)C(=O)N(C3CCC(=O)NC3=O)C4)CC2C1 (stereo not shown) [Compound D113] | < 0.01 µM | –

Source: US12686687B2, “Compounds and uses thereof” (Foghorn Therapeutics Inc., priority 2019, dated 2026)
